Holding throughout (type): cell-based
Test [1] has as its system stable HCV 2a JFH-1 Rluc replicon cells (L31 present in NS5A). In words: HCV replicon RLuc reporter assay, genotype 2a JFH-1. Conditions: Hepatitis C virus. The protocol: (§1) Antiviral potency (EC50) was determined using a Renilla luciferase (RLuc)-based HCV replicon reporter assay. To perform the assay for genotype 1 and 2a JFH-1, stable HCV 1a RLuc replicon cells (harboring a dicistronic genotype 1a H77 replicon that encodes a RLuc reporter), stable HCV 1b RLuc replicon cells (harboring a dicistronic genotype 1b Con1 replicon that encodes a RLuc reporter), or stable HCV 2a JFH-1 Rluc replicon cells (harboring a dicistronic genotype 2a JFH-1 replicon that encodes a RLuc reporter; with L31 present in NS5A) were dispensed into 384-well plates for EC50 assays. To perform the assay for genotype 2a (with M31 present in NS5A) or 2b, NS5A chimeric genotype 2a JFH-1 replicons that encodes a RLuc-Neo reporter and either genotype 2a J6 strain NS5A gene or genotype 2b MD2b-1 strain NS5A gene (both with M31 present) respectively, were either transiently transfected (t) into Huh-Lunet cells or were established as stably replicating replicon cells (s). Either cells were dispensed into 384-well plates for EC50 assays. To perform the assay for genotype 3 and 4, NS5A chimeric genotype 1b Con1 replicons that encodes a Pi-RLuc reporter and either genotype 3a S52 strain NS5A gene or genotype 4a ED43 strain NS5A gene respectively, were transiently transfected (t) into Huh-Lunet cells, which were subsequently dispensed into 384-well plates. Alternatively, stable HCV 3a RLuc replicon cells (s) (harboring a dicistronic genotype 3a S52 replicon that encodes an RLuc reporter), or stable HCV 4a RLuc replicon cells (s) (harboring a dicistronic genotype 4a ED43 replicon that encodes a RLuc reporter) were established in Huh-7-derived cells and dispensed into 384-well plates for EC50 assays. Compounds were dissolved in DMSO at a concentration of 10 mM and diluted in DMSO either manually or using an automated pipeting instrument. Serially 3-fold diluted compounds were either manually mixed with cell culture media and added to the seeded cells or directly added to the cells using an automated instrument. DMSO was used as a negative (solvent; no inhibition) control, and the protease inhibitor ITMN-191 was included at a concentration >100×EC50 as a positive control. 72 hours later, cells were lysed and Renilla luciferase activity quantified as recommended by the manufacturer (Promega-Madison, Wis.). Non-linear regression was performed to calculate EC50 values.

Test [2] has as its system stable HCV 4a RLuc replicon cells (genotype 4a ED43 replicon). In words: HCV replicon assay, genotype 4a (stable). Conditions: Hepatitis C virus. The protocol:
as §1

The nature of test [3]: HCV replicon assay, genotype 2b (stable). Conditions: Hepatitis C virus, genotype 2a / genotype 2b. As to the method: as §1
Test [4] concerns stable HCV 1a RLuc replicon cells (genotype 1a H77 replicon). Briefly: HCV replicon RLuc reporter assay, genotype 1a. Conditions: Hepatitis C virus, genotype 1a replicon. As to the method: as §1
For test [5], the system named is stable HCV 3a RLuc replicon cells (genotype 3a S52 replicon). Briefly: HCV replicon assay, genotype 3a (stable). Conditions: Hepatitis C virus. As to the method: as §1
Test [6] deals with stable HCV 1b RLuc replicon cells (genotype 1b Con1 replicon). Briefly: HCV replicon RLuc reporter assay, genotype 1b. Conditions: Hepatitis C virus; genotype 1b replicon, 72 hours. The protocol: as §1
Test [7] in a line: HCV replicon assay, genotype 2a J6 (transient). Conditions: Hepatitis C virus. The protocol:
as §1

Where two headings read alike, the source gives them in different places.

On to `COC[C@H]1C[C@@H](c2ncc(-c3ccc(-c4ccc(-c5[nH]c([C@@H]6CC[C@H](C)N6C(=O)[C@@H](NC(=O)OC)C(C)C)nc5Cl)cc4)cc3)[nH]2)N(C(=O)[C@@H](NC(=O)OC)C(C)C)C1` [AH, Methyl (S)-1-((2S,4S)-2-(5-(4′-(4-chloro-2-((2S,4S)-1-((R)-2-(methoxycarbonylamino)-3-methylbutanoyl)-5-methylpyrrolidin-2-yl)-1H-imidazol-5-yl)biphenyl-4-yl)-1H-imidazol-2-yl)-4-(methoxymethyl)pyrrolidin-1-yl)-3-methyl-1-oxobutan-2-ylcarbamate], for which the EC50 was below 0.1 nM in test [1] (read-out: 2a JFH); 0.066 nM in test [1] (read-out: 2a JFH (nM)); below 0.1 nM in test [2] (read-out: 4a (s)); 0.02 nM in test [2] (read-out: 4a (s) (nM)); 1 to 44 nM in test [3] (2BS, read-out: 2b (s)); 7.3 nM in test [3] (read-out: 2b (s) (nM)). The EC50 is 37 pM in test [4]; below 100 pM in test [4] (activity range); 1 to 44 nM in test [5] (read-out: 3a (s)); 36.5 nM in test [5] (read-out: 3a (s) (nM)); 40 pM in test [6].

For the compound `COC[C@H]1C[C@@H](c2nc(Cl)c(-c3ccc(-c4ccc(-c5cnc([C@@H]6CC[C@H](C)N6C(=O)[C@@H](NC(=O)OC)C(C)C)[nH]5)cc4)cc3)[nH]2)N(C(=O)[C@@H](NC(=O)OC)C(C)C)C1` [AI, Methyl (S)-1-((2S,4S)-2-(4-chloro-5-(4′-(2-((2S,4S)-1-((R)-2-(methoxycarbonylamino)-3-methylbutanoyl)-5-methylpyrrolidin-2-yl)-1H-imidazol-5-yl)biphenyl-4-yl)-1H-imidazol-2-yl)-4-(methoxymethyl)pyrrolidin-1-yl)-3-methyl-1-oxobutan-2-ylcarbamate], the EC50 is below 0.1 nM in test [1] (read-out: 2a JFH); 0.075 nM in test [1] (read-out: 2a JFH (nM)); below 0.1 nM in test [2] (read-out: 4a (s)); 0.018 nM in test [2] (read-out: 4a (s) (nM)); 1 to 44 nM in test [3] (2BS, read-out: 2b (s)); 5.08 nM in test [3] (read-out: 2b (s) (nM)). The EC50 was 34 pM in test [4]; below 100 pM in test [4] (activity range); 1 to 44 nM in test [5] (read-out: 3a (s)); 40.8 nM in test [5] (read-out: 3a (s) (nM)); 28 pM in test [6].

On to `COC[C@H]1C[C@@H](c2ncc(-c3ccc(-c4ccc(-c5cnc([C@@H]6CC[C@H](C)N6C(=O)[C@@H](NC(=O)OC)C(C)C)[nH]5)cc4)cc3)[nH]2)N(C(=O)[C@@H](NC(=O)OC)C2CCOCC2)C1` [Example AN, Methyl [(1S)-2-[(2S,4S)-2-[5-(4′-{2-[(2S,5S)-1-{(2S)-2-[(methoxycarbonyl)-amino]-3-methylbutanoyl}-5-methylpyrrolidin-2-yl]-1H-imidazol-5-yl}biphenyl-4-yl)-1H-imidazol-2-yl]-4-(methoxymethyl)pyrrolidin-1-yl]-2-oxo-1-(tetrahydro-2H-pyran-4-yl)ethyl]carbamate], for which the EC50 in test [1] (read-out: 2a JFH) was below 0.1 nM; in test [1] (read-out: 2a JFH (nM)), 0.027 nM; in test [2] (read-out: 4a (s)), below 0.1 nM; in test [2] (read-out: 4a (s) (nM)), 0.035 nM; in test [3] (2BS, read-out: 2b (s)), 1 to 44 nM; in test [3] (read-out: 2b (s) (nM)) it was 2.14 nM. For the same compound, the EC50 in test [4] was 37 pM; in test [4] (activity range), below 100 pM; in test [5] (read-out: 3a (s)), 1 to 44 nM; in test [5] (read-out: 3a (s) (nM)), 2.19 nM; in test [6] it was 65 pM; in test [7] (read-out: 2a J6 (t)) it was 0.1 to 0.999 nM. The EC50 in test [7] (read-out: 2a J6 (t) (nM)) was 0.207 nM.

For the compound `COC[C@H]1C[C@@H](c2ncc(-c3ccc(-c4ccc(-c5cnc([C@@H]6CC[C@H](C)N6C(=O)[C@@H](NC(=O)OC)C6CCOCC6)[nH]5)cc4)cc3)[nH]2)N(C(=O)[C@@H](NC(=O)OC)C2CCOCC2)C1` [Example AJ, Methyl [(1S)-2-{(2S,5S)-2-[5-(4′-{2-[(2S,4S)-1-[(2S)-2-[(methoxycarbonyl)amino]-2-(tetrahydro-2H-pyran-4-yl)acetyl]-4-(methoxymethyl)pyrrolidin-2-yl]-1H-imidazol-5-yl}biphenyl-4-yl)-1H-imidazol-2-yl]-5-methylpyrrolidin-1-yl}-2-oxo-1-(tetrahydro-2H-pyran-4-yl)ethyl]carbamate], the EC50 was below 0.1 nM in test [1] (read-out: 2a JFH); 0.079 nM in test [1] (read-out: 2a JFH (nM)); 0.1 to 0.999 nM in test [2] (read-out: 4a (s)); 0.133 nM in test [2] (read-out: 4a (s) (nM)); 0.1 to 0.999 nM in test [3] (2BS, read-out: 2b (s)); 0.672 nM in test [3] (read-out: 2b (s) (nM)). The EC50 in test [4] is 186 pM; in test [4] (activity range), 100 to 999 pM; in test [5] (read-out: 3a (s)), 1 to 44 nM; in test [5] (read-out: 3a (s) (nM)) it was 1.34 nM; in test [6] it was 384 pM; in test [7] (read-out: 2a J6 (t)), 0.1 to 0.999 nM. Moreover, the EC50 in test [7] (read-out: 2a J6 (t) (nM)) is 0.155 nM.

In the case of `COC[C@H]1C[C@@H](c2ncc(-c3ccc(-c4ccc(-c5cnc([C@@H]6CC[C@H](C)N6C(=O)[C@@H](NC(=O)OC)C6CCOCC6)[nH]5)cc4)cc3)[nH]2)N(C(=O)[C@@H](NC(=O)OC)C(C)C)C1` [Example AL, Methyl {(2S)-1-[(2S,4S)-2-{5-[4′-(2-{(2S,5S)-1-[(2S)-2-[(methoxycarbonyl)amino]-2-(tetrahydro-2H-pyran-4-yl)acetyl]-5-methylpyrrolidin-2-yl}-1H-imidazol-5-yl)biphenyl-4-yl]-1H-imidazol-2-yl}-4-(methoxymethyl)pyrrolidin-1-yl]-3-methyl-1-oxobutan-2-yl}carbamate], the EC50 in test [1] (read-out: 2a JFH) is below 0.1 nM; in test [1] (read-out: 2a JFH (nM)), 0.035 nM; in test [2] (read-out: 4a (s)), below 0.1 nM; in test [2] (read-out: 4a (s) (nM)), 0.04 nM; in test [3] (2BS, read-out: 2b (s)), 1 to 44 nM; in test [3] (read-out: 2b (s) (nM)), 2.17 nM. Besides, the EC50 in test [4] was 52 pM; in test [4] (activity range), below 100 pM; in test [5] (read-out: 3a (s)) it was 1 to 44 nM; in test [5] (read-out: 3a (s) (nM)), 2.14 nM; in test [6] it was 74 pM; in test [7] (read-out: 2a J6 (t)), below 0.1 nM. For the same compound, in test [7] (read-out: 2a J6 (t) (nM)), the EC50 turned out to be 0.084 nM.

With `COC[C@H]1C[C@@H](c2nc(Cl)c(-c3ccc(-c4ccc(-c5[nH]c([C@@H]6CC[C@H](C)N6C(=O)[C@@H](NC(=O)OC)C(C)C)nc5Cl)cc4)cc3)[nH]2)N(C(=O)[C@@H](NC(=O)OC)C(C)C)C1` [Example AG, Methyl (S)-1-((2S,4S)-2-(4-chloro-5-(4′-(4-chloro-2-((2S,4S)-1-((R)-2-(methoxycarbonylamino)-3-methylbutanoyl)-5-methylpyrrolidin-2-yl)-1H-imidazol-5-yl)biphenyl-4-yl)-1H-imidazol-2-yl)-4-(methoxymethyl)pyrrolidin-1-yl)-3-methyl-1-oxobutan-2-ylcarbamate], the EC50 in test [1] (read-out: 2a JFH) was below 0.1 nM; in test [1] (read-out: 2a JFH (nM)), 0.05 nM; in test [2] (read-out: 4a (s)), below 0.1 nM; in test [2] (read-out: 4a (s) (nM)) it was 0.011 nM; in test [3] (2BS, read-out: 2b (s)) it was 1 to 44 nM; in test [3] (read-out: 2b (s) (nM)), 2.56 nM. Further, the EC50 in test [4] is 22 pM; in test [4] (activity range) it was below 100 pM; in test [5] (read-out: 3a (s)) it was 1 to 44 nM; in test [5] (read-out: 3a (s) (nM)) it was 17.6 nM; in test [6] it was 19 pM.

(Values after patent publication US9079887B2, “Antiviral compounds” (priority 2012, dated 2015).)
